# Experimental data: patent US20210289787A1, “HERBICIDAL MIXTURES COMPRISING ISOXAFLUTOLE, TRIFLUDIMOXAZIN AND AN IMIDAZOLINONE HERBICIDE; AND THEIR USE IN SOYBEAN AND COTTON CULTURES” (BASF SE, priority 2018, published 2021)
# Test system: SETVI (Setaria viridis, Green foxtail)
# Experiment: post-emergence greenhouse experiment, herbicidal action (synergism by Colby)
# Type: in vivo
structure (smiles),measurement,setting,value
"CS(=O)(=O)c1cc(C(F)(F)F)ccc1C(=O)c1cnoc1C1CC1 [Isoxaflutole, isoxaflutole]","Herbicidal action against SETVI, Found","growth stage 13 (6 to 10 cm), scale 0 to 100, test period 20 days, isoxaflutole 25 g/ha alone",20
same,"Herbicidal action against SETVI, Found","growth stage 13, scale 0 to 100, 20 days, isoxaflutole 12.5 g/ha alone",20
